Data reported in paper PMC6127216, “The quaternary structure of Thermus thermophilus aldehyde dehydrogenase is stabilized by an evolutionary distinct C-terminal arm extension” (Scientific Reports, 2018).

Key:
ALDHTt508 = target: T1, ALDHTt508 (Thermus thermophilus, UniProt Q72KD3); assay: fluorescence of NADH formation; type: biochemical; settings: 0.4 mM NAD+, 1 mM hexanal, pH 8.0, 50 °C; turnover only
T1 construct: gene TT_C0513; C-terminal truncation after residue 508 of 530; tetramer

ALDHTt515 [1] = target: T2, ALDHTt515 (Thermus thermophilus, UniProt Q72KD3); assay: fluorescence of NADH formation; type: biochemical; settings: 0.4 mM NAD+, 1 mM hexanal, pH 8.0, 50 °C; turnover only
T2 construct: gene TT_C0513; C-terminal truncation lacking the last 15 of 530 residues; tetramer; not the natural 515-residue HB8 enzyme

ALDHTt515 [2] = target: T2, ALDHTt515; assay: X-ray crystal structure; settings: co-crystallised with 1 mM NADP+; cofactor binding cleft
[3] = target: T3, ALDHTt530 (recombinant wild type ALDHTt) (Thermus thermophilus, UniProt Q72KD3); assay: X-ray crystal structure; type: binding; settings: crystals with 50 mM propanal; substrate entry channel, anchor loop
T3 construct: gene TT_C0513; full length, 530 residues; homotetramer; 6FJX is the native protein
T3 sequence (Q72KD3 1-530): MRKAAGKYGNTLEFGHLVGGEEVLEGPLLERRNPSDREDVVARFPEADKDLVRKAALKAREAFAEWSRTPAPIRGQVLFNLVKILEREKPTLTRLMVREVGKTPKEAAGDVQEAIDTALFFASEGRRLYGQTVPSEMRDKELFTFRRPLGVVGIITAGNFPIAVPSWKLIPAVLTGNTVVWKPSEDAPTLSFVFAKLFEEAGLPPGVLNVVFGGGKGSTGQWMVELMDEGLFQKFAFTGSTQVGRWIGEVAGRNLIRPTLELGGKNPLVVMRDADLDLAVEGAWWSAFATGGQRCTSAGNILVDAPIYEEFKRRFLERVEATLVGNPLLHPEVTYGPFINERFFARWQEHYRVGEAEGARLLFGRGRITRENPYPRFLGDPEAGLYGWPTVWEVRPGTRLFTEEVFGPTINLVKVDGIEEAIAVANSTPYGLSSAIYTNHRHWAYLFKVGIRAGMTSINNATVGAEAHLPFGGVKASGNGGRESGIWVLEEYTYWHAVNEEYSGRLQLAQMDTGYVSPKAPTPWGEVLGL

[4] = target: native aldehyde dehydrogenase from Thermus thermophilus (ALDHTt native) (Thermus thermophilus); assay: crystal structure; sitting-drop vapor diffusion at 20 °C against 50 mM MOPS pH 7.5 and 1.2 M ammonium sulfate; space group P4(1)2(1)2, two copies in the asymmetric unit, tetramer by NCS and crystallographic symmetry; recombinant proteins in the same conditions (ALDHTt515 with 1 mM NADP+, ALDHTt530 with 50 mM propanal)
[5] = substrate: CCC=O; assay: fluorescence of NADH formation; type: biochemical, Thermus thermophilus; settings: 25 °C, NAD+ as cofactor, pH 8.0 (standard assay)

For NC(=O)c1ccc[n+]([C@@H]2O[C@H](COP(=O)(O)OP(=O)(O)OC[C@H]3O[C@@H](n4cnc5c(N)ncnc54)[C@H](O)[C@@H]3O)[C@@H](O)[C@H]2O)c1 [NAD^+], the “fluorescence of NADH formation” value (ALDHTt508) was “both truncated mutants ALDHTt508 and ALDHTt515 were slightly more active” and the “fluorescence of NADH formation” value (ALDHTt515 [1]) was “both truncated mutants ALDHTt508 and ALDHTt515 were slightly more active”.

NC(=O)c1ccc[n+]([C@@H]2O[C@H](COP(=O)(O)OP(=O)(O)OC[C@H]3O[C@@H](n4cnc5c(N)ncnc54)[C@H](OP(=O)(O)O)[C@@H]3O)[C@@H](O)[C@H]2O)c1 [NADP^+] was tested, and the X-ray crystal structure (ALDHTt515 [2]) was “The co-crystal structure of ALDHTt515 was solved with NADP^+ bound”.

In the case of CCC(=O)O [propanoic acid], the X-ray crystal structure [3] is reported as “yielded a structure with a product molecule, propanoic acid, in monomer A and B”.

In the case of “native aldehyde dehydrogenase from Thermus thermophilus (ALDHTt native) (enzyme)”, the stoichiometry N [4] is reported as 4.

B1: ALDHTt530 (recombinant wild type ALDHTt) (Thermus thermophilus HB27) (protein)
chain: MRKAAGKYGNTLEFGHLVGGEEVLEGPLLERRNPSDREDVVARFPEADKDLVRKAALKAREAFAEWSRTPAPIRGQVLFNLVKILEREKPTLTRLMVREVGKTPKEAAGDVQEAIDTALFFASEGRRLYGQTVPSEMRDKELFTFRRPLGVVGIITAGNFPIAVPSWKLIPAVLTGNTVVWKPSEDAPTLSFVFAKLFEEAGLPPGVLNVVFGGGKGSTGQWMVELMDEGLFQKFAFTGSTQVGRWIGEVAGRNLIRPTLELGGKNPLVVMRDADLDLAVEGAWWSAFATGGQRCTSAGNILVDAPIYEEFKRRFLERVEATLVGNPLLHPEVTYGPFINERFFARWQEHYRVGEAEGARLLFGRGRITRENPYPRFLGDPEAGLYGWPTVWEVRPGTRLFTEEVFGPTINLVKVDGIEEAIAVANSTPYGLSSAIYTNHRHWAYLFKVGIRAGMTSINNATVGAEAHLPFGGVKASGNGGRESGIWVLEEYTYWHAVNEEYSGRLQLAQMDTGYVSPKAPTPWGEVLGL
notes: full length, 530 residues; homotetramer; 6FJX is the native protein
Molecule B1 has a Km [5] of 2760 µM.
